pIC50: −log10 of the molar value. Like-named read-outs stand apart in the source and are kept apart here.
Tests used:
[1] = Chemical stability in simulated intestinal fluid (SIF); assay type: physicochemical; details: SIF without enzymes, pH 6.5; 10 μm; 2 hours at 37° C.; substance amount remaining
Method: (§1) 1) Determination of chemical stability in simulated intestinal fluid, simulated gastric fluid and human blood plasma.
(§2) SGF concentrate without enzymes, pH=1,4 (Sigma Ireland, cat #01651) was used as simulated gastric fluid. Initial candidate solution (10 mM in DMSO) was diluted with a SGF working solution to a concentration of 10 μm (test solution). The test solution was incubated in a dry block thermostat for 2 hours at 37° C. SIF concentrate without enzymes, pH=6.5 (Sigma Ireland, cat #55331) was used as simulated intestinal fluid. Initial candidate solution (10 mM in DMSO) was diluted with a SIF working solution to a concentration of 10 μm (test solution). The test solution was incubated in a dry block thermostat for 2 hours at 37° C. HPLC with Agilent 1200 liquid chromatography system (Agilent, USA) was employed to determine peak areas of the compounds in test samples, said peak areas corresponding to the initial test time (prior to incubation) and the final test time (after incubation in a dry block thermostat for 2 hours at 37° C.). We used gradient elution (1 mL/min flow rate). Substance amount in % in a sample after thermostatting was determined.
(§3) The stability of the compounds was estimated.

[2] = biological target: T1, DM EGFR (DoubleMutantEGFR, L828R/T790M) (Homo sapiens, UniProt P00533, L858R/T790M); assay: Inhibition of DM EGFR kinase activity (ADP-Glo); assay type: biochemical; details: for pIC50: inhibition of kinase activity, EGFR DM (L828R/T790M); for SI, IC50(WT)/IC50(DM): selectivity index, kinase EGFR WT vs EGFR DM
T1 construct: purchased SignalChem
In short: (§4)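 Recombinant WT or double-mutant EGFR was incubated with a solution of 0.5 mg/mL peptide substrate and 50 μM ATP for 180 minutes at 37° C. Kinase activity was detected by ADP-Glo luminescence. IC50 values came from a four-parameter logistic fit.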

[3] = test system: HCC827 (lung adenocarcinoma, SM, exon19delE746-A750); assay: Antiproliferative activity on HCC827 cells (Alamar Blue); assay type: cell-based; details: Homo sapiens, antiproliferative test
Method: Antiproliferative activity of EGFR inhibitors (Tables 15 and 16) was measured in cell-based bioassay on continuous epithelial cell cultures: A549 (lung adenocarcinoma, ATCC® CRM-CCL-185™—WT), HCC827 (lung adenocarcinoma, ATCC® CRL-2868™—SM (SingleMutantEGFR, exon19delE746-A750)) and H1975 (lung adenocarcinoma, ATCC® CRL-5908™—DM (DoubleMutantEGFR, L828R/T790M)) using cell viability reagent Alamar Blue (ThermoFisher, # DAL1100). Cells were cultured in 10% FBS-supplemented (Gibco, #16140071) RPMI-1640 (PanEco, S330p) for at least 1 passage after thawing, washed with PBS and passaged in 96-well culture plates (3599, Corning) with RPMI-1640 growth medium supplemented with 2% FBS in an amount of 5*10^3 cells/well for A549, 10*10^3 cells/well for HCC827 and 15*10^3 cells/well for H1975 in 100 μL, and incubated at 37° C. in an incubator (Thermo Forma, USA) under 5% of CO2 for 16-18 h for cell attachment.
The test compounds were dissolved in DMSO in the selected range of concentrations and transferred to RPMI-1640 medium (PanEco, S330p) supplemented with 2% FBS. After adding 50 μl of the prepared dilutions to the cells, the incubation mixture contained the final concentrations of the test substances and no more than 1% DMSO. The plates were Incubated at 37° C. for 72 h. After incubation, 15 μl of Alamar Blue vital dye (ThermoFisher, # DAL1100) was added to each well. The plates were shaken on an orbital shaker (Biosan, Latvia) and further incubated for 3-5 h in a CO2 incubator (Thermo Forma, USA). Number of living cells was estimated using a plate spectrophotometer Infinite M200Pro, (Tecan, Switzerland) measuring fluorescent signal at the excitation wavelength (λEx) of 540 nm and emission wavelength (λEm) of 590 nm.
IC50 was calculated using Magellan 7.2 software (Tecan, Switzerland) approximating experimental points by four-parameter logistic model with the optimization by Levenberg-Marquardt.

[4] = test system: H1975 (lung adenocarcinoma, DM, L828R/T790M); assay: Antiproliferative activity on H1975 cells (Alamar Blue); assay type: cell-based; details: for pIC50: Homo sapiens, NCI-H1975, H1975 cells; for SI IC50(A549)/IC50(DM): selectivity index, A549 vs H1975 cells
In short: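 H1975 cells (15*10^3/well) attached 16-18 h in RPMI-1640 with 2% FBS, then exposed to compounds (≤1% DMSO final) for 72 h at 37 °C. Viability by Alamar Blue fluorescence (Ex 540/Em 590 nm) after 3-5 h; IC50 from four-parameter logistic fit.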

[5] = General cytotoxicity on HepG2 cells; assay type: cell-based; details: human; general cytotoxicity, HepG2 cells, 72 hours, average of several tests
In short: (§5)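 HepG2 cells seeded at 2*10^4 cells per well and compounds added in DMEM with 2% FBS for 72 h at 37 °C. Viability read with Alamar Blue and CC50 derived as for IC50. Therapeutic index taken as HepG2 CC50 over H1975 IC50.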

[6] = test system: HepG2 cells; assay: General cytotoxicity on HepG2 cells; assay type: cell-based; details: therapeutic index, CC50 HepG2 / IC50 H1975
In short: as §5

[7] = test system: A549 (lung adenocarcinoma, WT); assay: Antiproliferative activity on A549 cells (Alamar Blue); assay type: cell-based; details: Homo sapiens, antiproliferative test
In short: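 Cells seeded at 5*10^3/well in RPMI-1640 with 2% FBS, attached 16-18 h at 37° C, then exposed to compounds (≤1% DMSO) for 72 h. Alamar Blue added for 3-5 h; fluorescence read at 540/590 nm. IC50 from four-parameter logistic fit.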

[8] = biological target: T2, WT EGFR (Wild-Type EGFR) (Homo sapiens, UniProt P00533); assay: Inhibition of WT EGFR kinase activity (ADP-Glo); assay type: biochemical
T2 construct: purchased SignalChem
In short: as §4

[9] = Chemical stability in simulated gastric fluid (SGF); assay type: physicochemical; details: SGF without enzymes, pH 1,4; 10 μm; 2 hours at 37° C.; substance amount remaining
Method: as §1, §2, §3

[10] = Chemical stability in human blood plasma; assay type: in vitro ADME; details: pooled human blood plasma; 10 μm; 4 hours at 37° C.; substance amount remaining
In short: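 Pooled plasma from ten healthy donors was spiked to 10 μM from a 10 mM DMSO stock and held 4 h at 37 °C. After acetonitrile protein precipitation, HPLC peak areas before and after incubation gave the percentage of compound remaining.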

[11] = Enzyme stability in human liver S9 fractions; assay type: in vitro ADME; details: 0.5 mg/mL pooled human liver S9 fractions; 10 μM compound; 37° C.; pH 7.4; read-out: Stability in liver S9 fractions, Clint
In short: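 Compound at 10 μM was incubated at 37 °C with 0.5 mg/mL pooled human liver S9, 2 mM β-NAD and 4 mM MgCl2 in 0.1 M sodium phosphate, pH 7.4, then quenched with acetonitrile and analysed chromatographically. T½ and CLint were derived from the slope of log peak area versus time.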

[12] = average values obtained in several tests, Table 16, read-out: H1975 (DM) IC50
[13] = antiproliferative test, Table 15, read-out: IC50 H1975 (DM)

C=CC(=O)Nc1cc(Nc2cc(C(=O)c3ccc(N4CCOCC4)cc3)ccn2)c(OC)cc1N(C)CCN(C)C.O=C(O)C(F)(F)F [EGFR_3365_5, N-(2-((2-(dimethylamino)ethyl)(methyl)amino)-4-methoxy-5-((4-(4-morpholinobenzoyl)pyridin-2-yl)amino)phenyl)acrylamide 2,2,2-trifluoroacetate]
Stability in SIF, % [1]: 89.8%
pIC50 [2]: 7.66
SI, IC50(WT)/IC50(DM) [2]: 21.03
pIC50 [3]: 7.54
pIC50 [4, 12]: 7.24
pIC50 [4, 13]: 7.24
SI IC50(A549)/IC50(DM) [4]: 132.56
CC50 at 72 h [5]: 17.7 µM
TI, CC50/IC50 [6]: 309
pIC50 [7]: 5.12
pIC50 [8]: 6.33
Stability in SGF, % [9]: 100.0%

C=CC(=O)Nc1cc(Nc2nccc(C(=O)c3cccc(F)c3)n2)c(OC)cc1N(C)CCN(C)C [EGFR_3365_11, N-(2-((2-(dimethylamino)ethyl)(methyl)amino)-5-((4-(3-fluorobenzoyl)pyrimidin-2-yl)amino)-4-methoxyphenyl) acrylamide]
Stability in SIF, % [1]: 100.0%
pIC50 [2]: 8.19
SI, IC50(WT)/IC50(DM) [2]: 26.43
pIC50 [3]: 8.21
pIC50 [4, 12]: 6.45
pIC50 [4, 13]: 6.45
SI IC50(A549)/IC50(DM) [4]: 35.37
CC50 at 72 h [5]: 15 µM
TI, CC50/IC50 [6]: 43
pIC50 [7]: 4.91
pIC50 [8]: 6.77
Stability in SGF, % [9]: 100.0%
Stability in blood plasma, % [10]: 85.4%

C=CC(=O)Nc1cc(Nc2nccc(C(=O)c3ccc(Br)cc3)n2)c(OC)cc1N(C)CCN(C)C [EGFR_3365_13, N-(5-((4-(4-bromobenzoyl)pyrimidin-2-yl)amino)-2-((2-(dimethylamino)ethyl) (methyl)amino)-4-methoxyphenyl)acrylamide]
Stability in SIF, % [1]: 100.0%
pIC50 [2]: 7.74
SI, IC50(WT)/IC50(DM) [2]: 6.22
pIC50 [3]: 7.99
pIC50 [4, 12]: 7.51
pIC50 [4, 13]: 7.51
SI IC50(A549)/IC50(DM) [4]: 145.63
CC50 at 72 h [5]: 14.1 µM
TI, CC50/IC50 [6]: 460
pIC50 [7]: 5.35
pIC50 [8]: 6.95
Stability in SGF, % [9]: 98.9%
Stability in blood plasma, % [10]: 82.4%

C=CC(=O)Nc1cc(Nc2nccc(C(=O)c3ccccc3[N+](=O)[O-])n2)c(OC)cc1N(C)CCN(C)C [EGFR_3365_36, N-(2-((2-(dimethylamino)ethyl)(methyl)amino)-4-methoxy-5-((4-(2-nitrobenzoyl)pyrimidin-2-yl)amino)phenyl)acrylamide]
Stability in SIF, % [1]: 100.0%
pIC50 [2]: 7.72
SI, IC50(WT)/IC50(DM) [2]: 19.05
pIC50 [4, 12]: 6.74
pIC50 [4, 13]: 6.74
SI IC50(A549)/IC50(DM) [4]: 402.37
CC50 at 72 h [5]: 36.5 µM
TI, CC50/IC50 [6]: 199
pIC50 [7]: 4.13
pIC50 [8]: 6.44
Stability in SGF, % [9]: 100.0%
Stability in blood plasma, % [10]: 98.5%

C=CC(=O)Nc1cc(Nc2cc(C(=O)c3ccc(C)cc3)ccn2)c(OC)cc1N(C)CCN(C)C [EGFR_3365_57, N-(2-((2-(dimethylamino)ethyl)(methyl)amino)-4-methoxy-5-((4-(4-methylbenzoyl)pyridin-2-yl)amino)phenyl)acrylamide]
Stability in SIF, % [1]: 96.6%
pIC50 [2]: 8.20
SI, IC50(WT)/IC50(DM) [2]: 7.96
pIC50 [3]: 8.25
pIC50 [4, 12]: 7.16
pIC50 [4, 13]: 7.16
SI IC50(A549)/IC50(DM) [4]: 124
CC50 at 72 h [5]: 22.8 µM
TI, CC50/IC50 [6]: 328
pIC50 [7]: 5.06
pIC50 [8]: 7.30
Stability in SGF, % [9]: 100.0%

C=CC(=O)Nc1cc(Nc2nccc(C(=O)c3ccc(C)cc3)n2)c(OC)cc1N(C)CCN(C)C [EGFR_3365_64, N-(2-((2-(dimethylamino)ethyl)(methyl)amino)-4-methoxy-5-((4-(4-methylbenzoyl)pyrimidin-2-yl)amino)phenyl)acrylamide]
Intrinsic clearance in human liver S9 fractions at 10 µM [11]: 16.6 µL/min/mg
Stability in SIF, % [1]: 100.0%
Stability in SGF, % [9]: 100.0%
Stability in blood plasma, % [10]: 87.2%
